From ChEMBL document CHEMBL3046135, “Iodine (III)-mediated synthesis of some 2-aryl/hetarylbenzoxazoles as antibacterial/antifungal agents” (2010)
Activity calls are given as the source filed them. The rule behind the calls is not given here.

Columns and labels:
Type in all cases: functional
[1] = test system: Pseudomonas putida; test: Antibacterial activity against Pseudomonas putida at 100 ug/ml after 24 hr by agar well diffusion method
[2] = test system: Pseudomonas putida; test: Antibacterial activity against Pseudomonas putida at 50 ug/ml after 24 hr by agar well diffusion method
[3] = test system: Pseudomonas putida; test: Antibacterial activity against Pseudomonas putida at 10 ug/ml after 24 hr by agar well diffusion method
[4] = test system: Escherichia coli; test: Antibacterial activity against Escherichia coli MTCC 51 at 100 ug/ml after 24 hr by agar well diffusion method
[5] = test system: Escherichia coli; test: Antibacterial activity against Escherichia coli MTCC 51 at 50 ug/ml after 24 hr by agar well diffusion method
[6] = test system: Escherichia coli; test: Antibacterial activity against Escherichia coli MTCC 51 at 10 ug/ml after 24 hr by agar well diffusion method
[7] = test system: Geobacillus stearothermophilus; test: Antibacterial activity against Geobacillus stearothermophilus MTCC 8508 at 100 ug/ml after 24 hr by agar well diffusion method
[8] = test system: Geobacillus stearothermophilus; test: Antibacterial activity against Geobacillus stearothermophilus MTCC 8508 at 50 ug/ml after 24 hr by agar well diffusion method
[9] = test system: Geobacillus stearothermophilus; test: Antibacterial activity against Geobacillus stearothermophilus MTCC 8508 at 10 ug/ml after 24 hr by agar well diffusion method
[10] = test system: Bacillus subtilis; test: Antibacterial activity against Bacillus subtilis MTCC 121 at 100 ug/ml after 24 hr by agar well diffusion method
[11] = test system: Bacillus subtilis; test: Antibacterial activity against Bacillus subtilis MTCC 121 at 50 ug/ml after 24 hr by agar well diffusion method
[12] = test system: Bacillus subtilis; test: Antibacterial activity against Bacillus subtilis MTCC 121 at 10 ug/ml after 24 hr by agar well diffusion method
[13] = test system: Aspergillus niger; test: Antifungal activity against Aspergillus niger at 100 ug/ml after 96 hr
[14] = test system: Aspergillus niger; test: Antifungal activity against Aspergillus niger at 10 ug/ml after 96 hr
[15] = test system: Aspergillus niger; test: Antifungal activity against Aspergillus niger at 50 ug/ml after 96 hr
[16] = test system: Aspergillus flavus; test: Antifungal activity against Aspergillus flavus at 100 ug/ml after 96 hr
[17] = test system: Aspergillus flavus; test: Antifungal activity against Aspergillus flavus at 50 ug/ml after 96 hr
[18] = test system: Aspergillus flavus; test: Antifungal activity against Aspergillus flavus at 10 ug/ml after 96 hr

Compound	diameter of the inhibition zone (DIZ) [1] [%]	diameter of the inhibition zone (DIZ) [2] [%]	diameter of the inhibition zone (DIZ) [3]	diameter of the inhibition zone (DIZ) [4] [%]	diameter of the inhibition zone (DIZ) [5] [%]	diameter of the inhibition zone (DIZ) [6]	diameter of the inhibition zone (DIZ) [7] [%]	diameter of the inhibition zone (DIZ) [8] [%]	diameter of the inhibition zone (DIZ) [9]	diameter of the inhibition zone (DIZ) [10] [%]	diameter of the inhibition zone (DIZ) [11] [%]	diameter of the inhibition zone (DIZ) [12]	inhibition at 100 µg/mL [13] [%]	inhibition at 10 µg/mL [14] [%]	inhibition at 50 µg/mL [15] [%]	inhibition at 100 µg/mL [16] [%]	inhibition at 50 µg/mL [17] [%]	inhibition at 10 µg/mL [18] [%]
O=[N+]([O-])c1ccc(-c2nc3cc(Cl)ccc3o2)cc1	31.16	18.13	inactive	30.24	17.14	inactive	19.37	12.26	inactive	17.22	10.13	inactive	73.6	43.2	66.9	78.5	49.6	19.9
Clc1ccc2oc(-c3cccs3)nc2c1	44.77	33.66	19.66%	43.33	31.77	17.74%	39.66	32.66	21.33%	41.66	30.53	19.66%	11.8	4.89	5.88	84.2	47.4	21.1
Cc1ccsc1-c1nc2cc(Cl)ccc2o1 [5-CHLORO-2-(3-METHYLTHIOPHEN-2-YL)BENZO[D]OXAZOLE]	35.06	25.67	12.12%	33.17	24.56	10.33%	31.84	23.44	12.66%	29.33	21.67	10.34%	76.5	17.5	47	84.2	36.8	21.1
Cc1ccc(-c2nc3ccccc3o2)s1	35.45	22.33	13.47%	34.29	21.74	12.45%	19.66	12.66	inactive	17.33	11.33	inactive	16.6	4.89	5.23	88	51.6	24.3
Cc1ccc(-c2nc3cc(Cl)ccc3o2)s1 [5-CHLORO-2-(5-METHYLTHIOPHEN-2-YL)BENZO[D]OXAZOLE]	32.66	18.33	inactive	31.74	17.44	inactive	18.47	12.66	inactive	16.66	10.33	inactive	71.9	12.4	63.9	37.5	24.9	13.7
Cc1ccc(-c2nc3cc(Cl)ccc3o2)cc1	73.47	54.56	14.22%	43.33	32.77	18.62%	43.33	30.87	17.92%	42.13	31.37	17.22%	21.4	4.19	7.47	66.9	43.2	20.1
Clc1ccc2oc(-c3cccnc3)nc2c1	35.33	25.33	9.66%	36.74	27.33	12.66%	32.33	21.43	11.33%	33.33	22.16	13.33%	76.5	17.6	41.7	78.9	26.3	15.8
Clc1ccc2oc(-c3ccccc3)nc2c1	76.33	57.66	15.21%	45.33	33.87	19.92%	36.44	27.21	10.66%	36.74	26.47	10.21%	21.9	8.93	5.88	86.2	51.4	29
O=C(N[C@H](CO)[C@H](O)c1ccc([N+](=O)[O-])cc1)C(Cl)Cl [CHLORAMPHENICOL]	71.24	43.4	19.33%	65.4	50.4	20.33%	77.2	53.2	25.33%	64.2	47.2	26.33%	–	–	–	–	–	–
COc1cc(-c2nc3cc(Cl)ccc3o2)ccc1O [4-(5-CHLOROBENZO[D]OXAZOL-2-YL)-2-METHOXYPHENOL]	37.33	26.33	12.66%	31.33	21.43	9.33%	31.74	21.33	10.66%	31.33	20.43	9.33%	21.9	8.93	5.88	86.2	51.4	29
C[C@@H]1C[C@@H]([C@H](O)CC2CC(=O)NC(=O)C2)C(=O)[C@@H](C)C1 [CYCLOHEXIMIDE]	–	–	–	–	–	–	–	–	–	–	–	–	35.3	11.8	23.5	78.9	63.1	15.8
c1csc(-c2nc3ccccc3o2)c1	33.33	24.34	9.66%	36.66	26.28	11.66%	31.33	20.43	10.33%	31.72	21.26	12.66%	82.3	41.7	64.7	88.5	63.1	21.1
